Assay results reported in ChEMBL document CHEMBL5653593 (Clin Sci (Lond), 2002).

Legend:
[1] = target: T1, Endothelin receptor type B (Homo sapiens, UniProt P24530); assay: Binding affinity to human ETB receptor transfected in CHO cell membrane assessed as inhibition constant incubated for 3 hrs by 125I-labelled ET-1 saturation binding assay; assay type: cell membranes
T1 sequence (P24530 whole entry): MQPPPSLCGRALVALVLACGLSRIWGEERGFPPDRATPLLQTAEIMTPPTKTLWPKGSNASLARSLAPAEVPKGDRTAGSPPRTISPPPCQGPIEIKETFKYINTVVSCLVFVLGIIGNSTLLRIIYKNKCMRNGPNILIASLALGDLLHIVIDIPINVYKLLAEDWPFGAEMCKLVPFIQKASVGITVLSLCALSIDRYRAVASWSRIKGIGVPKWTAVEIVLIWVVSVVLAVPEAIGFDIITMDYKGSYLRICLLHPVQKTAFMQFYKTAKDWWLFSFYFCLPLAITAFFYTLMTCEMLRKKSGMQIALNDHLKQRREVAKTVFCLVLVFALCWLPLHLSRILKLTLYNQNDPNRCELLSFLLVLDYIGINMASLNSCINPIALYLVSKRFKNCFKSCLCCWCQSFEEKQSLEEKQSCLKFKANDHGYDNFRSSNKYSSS

[2] = target: T1, Endothelin receptor type B; assay: Antagonist activity at human ETB receptor transfected in CHO cell membrane […]; assay type: functional, cell membranes
Endothelin-1 receptor [3] = target: T2, Endothelin-1 receptor (Homo sapiens, UniProt P25101); assay: Binding affinity to human ETA receptor transfected in CHO cell membrane assessed as inhibition constant incubated for 3 hrs by 125I-labelled ET-1 saturation binding assay; assay type: cell membranes
T2 sequence (P25101 whole entry): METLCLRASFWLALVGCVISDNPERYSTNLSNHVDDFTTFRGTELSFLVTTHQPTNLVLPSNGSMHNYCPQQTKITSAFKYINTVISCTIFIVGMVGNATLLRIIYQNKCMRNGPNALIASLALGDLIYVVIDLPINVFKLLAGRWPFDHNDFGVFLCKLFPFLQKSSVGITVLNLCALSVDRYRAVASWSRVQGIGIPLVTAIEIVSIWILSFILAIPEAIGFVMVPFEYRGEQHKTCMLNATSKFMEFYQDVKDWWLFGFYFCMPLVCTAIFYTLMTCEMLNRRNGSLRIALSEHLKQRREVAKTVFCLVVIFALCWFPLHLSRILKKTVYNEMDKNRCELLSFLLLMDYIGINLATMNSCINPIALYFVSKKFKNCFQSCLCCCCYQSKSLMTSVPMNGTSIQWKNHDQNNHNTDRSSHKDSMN

Endothelin-1 receptor [4] = target: T2, Endothelin-1 receptor; assay: Antagonist activity at human ETA receptor transfected in CHO cell membrane assessed as inhibition of 125I-labelled ET-1 binding to receptor incubated for 3 hrs by competition binding assay; assay type: functional, cell membranes
Endothelin-1 receptor [5] = target: T3, Endothelin-1 receptor (Rattus norvegicus, UniProt P26684); assay: Antagonist activity at ETA receptor in rat MMQ cells assessed as inhibition of phosphatidylinositol hydrolysis by myo-[3H]inositol radioactivity based assay; assay type: functional, cell-based
T3 sequence (P26684 whole entry): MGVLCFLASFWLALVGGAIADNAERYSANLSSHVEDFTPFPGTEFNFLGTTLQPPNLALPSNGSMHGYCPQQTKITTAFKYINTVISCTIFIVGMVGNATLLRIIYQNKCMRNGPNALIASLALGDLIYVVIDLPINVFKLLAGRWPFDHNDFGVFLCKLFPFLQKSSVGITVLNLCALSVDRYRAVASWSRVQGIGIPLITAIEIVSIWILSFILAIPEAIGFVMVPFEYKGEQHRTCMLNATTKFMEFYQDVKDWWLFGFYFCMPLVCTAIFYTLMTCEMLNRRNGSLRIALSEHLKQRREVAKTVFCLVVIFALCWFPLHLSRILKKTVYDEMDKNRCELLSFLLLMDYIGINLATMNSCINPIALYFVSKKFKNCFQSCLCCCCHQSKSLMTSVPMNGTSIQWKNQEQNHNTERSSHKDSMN

Compound	Ki [1]	IC50 [2]	Ki (Endothelin-1 receptor [3])	IC50 (Endothelin-1 receptor [4])	IC50 (Endothelin-1 receptor [5])
CCCCCS(=O)(=O)N(CCC)CCN1C[C@H](c2ccc3c(c2)OCO3)[C@@H](C(=O)O)[C@@H]1c1ccc(OC)c(F)c1	1.23 nM	1.12 nM	–	–	–
CCCOc1ccc([C@H]2[C@H](C(=O)O)[C@@H](c3ccc4c(c3)OCO4)CN2CC(=O)Nc2c(CC)cccc2CC)cc1 [A-192621]	–	0.59 nM	5600 nM	4280 nM	≥ 700 nM
CCCCN(CCCC)C(=O)CN1C[C@H](c2cc(OC)c3c(c2)OCO3)[C@@H](C(=O)O)[C@@H]1CC(C)(C)CCC [ABT-546]	–	–	–	–	0.59 nM
